From PMC11535186, “Exploring the Anti-Inflammatory Potential of Ajuga integrifolia Leaves Extract: In Vitro Dual Inhibition of Cyclooxygenase and Lipoxygenase Enzymes” (Advances in Pharmacological and Pharmaceutical Sciences, 2024)

Target: 5-LOX (Glycine max, UniProt P08170)
Assay: 5-LOX inhibitory assay (linoleic acid substrate, 234 nm)
Assay type: biochemical
Details: read-out: % inhibition 5-LOX
Procedure: The inhibition of LOX was evaluated according to the method described by Malterud with slight modifications. A 100 μL enzyme solution was prepared in boric acid buffer (0.2 M; pH 9.0). To assess the inhibitory effect, 25 μL of each test extract (20, 40, 60, 80, and 100 μg/mL) was added to the enzyme solution. The mixture was then incubated at room temperature for 3 min. […] IC50 values were calculated by regression analysis using Microsoft Excel involving five concentrations. The percentage inhibition of enzyme activity and IC50 values are presented as the mean values ± SD.

Sequence of 5-LOX (P08170 whole entry): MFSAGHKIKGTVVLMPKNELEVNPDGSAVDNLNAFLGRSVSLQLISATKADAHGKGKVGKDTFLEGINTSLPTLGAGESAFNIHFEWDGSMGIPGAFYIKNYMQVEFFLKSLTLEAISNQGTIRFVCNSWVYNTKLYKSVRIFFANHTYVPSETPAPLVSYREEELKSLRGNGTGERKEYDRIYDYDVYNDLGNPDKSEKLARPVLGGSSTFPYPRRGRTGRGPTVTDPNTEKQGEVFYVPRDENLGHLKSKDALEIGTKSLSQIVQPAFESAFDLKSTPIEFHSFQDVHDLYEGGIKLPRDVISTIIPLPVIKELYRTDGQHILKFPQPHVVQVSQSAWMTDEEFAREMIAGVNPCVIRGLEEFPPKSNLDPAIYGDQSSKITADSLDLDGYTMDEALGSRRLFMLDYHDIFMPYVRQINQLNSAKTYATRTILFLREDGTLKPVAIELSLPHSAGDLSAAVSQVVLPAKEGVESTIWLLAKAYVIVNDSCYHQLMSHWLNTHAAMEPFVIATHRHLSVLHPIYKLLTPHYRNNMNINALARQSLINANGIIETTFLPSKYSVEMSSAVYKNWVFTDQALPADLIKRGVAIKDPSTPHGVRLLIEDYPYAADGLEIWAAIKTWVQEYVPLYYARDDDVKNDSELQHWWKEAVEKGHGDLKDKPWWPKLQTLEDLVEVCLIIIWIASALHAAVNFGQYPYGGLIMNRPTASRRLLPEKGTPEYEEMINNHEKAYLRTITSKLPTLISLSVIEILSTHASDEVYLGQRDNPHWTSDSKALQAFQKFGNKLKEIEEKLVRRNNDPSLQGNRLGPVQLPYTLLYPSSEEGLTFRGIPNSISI

`CC(c1cc2ccccc2s1)N(O)C(N)=O` (centres unmarked) [Zileuton] showed an inhibition at 20 µg/mL of 26.1%, an inhibition at 40 µg/mL of 47% and an inhibition at 60 µg/mL of 51.9%. For the same molecule, the inhibition at 80 µg/mL was 64.2% and the inhibition at 100 µg/mL was 70.4%.
